A melting point compilation (Tetko et al.; mined from patent text by program, amines drawn as free bases though some values may be those of a salt)

Work on `CCCCCCCCCCCCCCCCSCC(COS(C)(=O)=O)NC(=O)OC` (centres undefined) yielded a melting point of 82 to 83 °C. For `N#Cc1ccc(C2=NOC3(CCN(C(=O)CCCC(=O)O)CC3)C2)cc1`, the melting point was 183 to 185 °C. `CC(C)Cc1nc2ccc(C(N)=O)cc2c(-c2ccccc2)c1CN` gave a melting point of 128 to 129 °C. For `OC(CCc1ccccc1)Cn1ccnc1` (centres undefined), the melting point was 106 to 107 °C. Compound `O=C1CN(c2nccc(Oc3ccc(NC(=O)c4cc(F)cc(N5CCCCC5)c4)c4ccccc34)n2)CCN1` has a melting point of 140 to 142 °C. `COC(=O)[C@@]12CN(Cc3ccccc3)C[C@@H]1[C@@](O)(c1ccc(SC)cc1)CC[C@H]2c1ccccc1` (racemic) gave a melting point of 124 to 126 °C. `Cc1ncc2cccc(CCCCCC(=O)O)n12` showed a melting point of 170 to 173 °C. Compound `CN(C(=O)CN1C(=O)C(NC(=O)Nc2cccc(C#N)c2)N=C(CN2CCCCC2)c2ccccc21)c1ccccc1` (centres undefined) has a melting point of 145 to 150 °C. In the case of `CCOC(=O)Cc1c[nH]c2nc(Nc3ccccc3)nn2c1=O`, the melting point is reported as 255 to 257 °C. With `CCN(C(=O)COc1nc(-c2ccc(N)cc2)nc(C)c1C)c1ccccc1` the melting point was 183 to 185 °C. `CO/N=C(/C(N)=O)c1ccccc1Oc1ccccc1` showed a melting point of 98 to 99 °C. In the case of `CC(=O)NCC1=CC(c2ccccc2)Cc2c1ccc(O)c2O` (centres undefined), the melting point is reported as 238 °C. Work on `O=C(O)C1CCc2c(c3ccccc3n2C(=O)C2CCCCC2)C1` (centres undefined) yielded a melting point of 157 to 159 °C. Compound `COC(=O)C1=C(C)NC(C)=C(C(=O)OCC2CCCO2)C1c1cccc(O)c1` (centres undefined) has a melting point of 170 to 172 °C. In the case of `COC(=O)c1ccc(CC(C)NCC(O)c2ccc(O)c(CO)c2)cc1C` (centres undefined), the melting point is reported as 82 to 85 °C. In the case of `Cc1nc(N2CCN(CC3CC3(F)F)C2=O)sc1-c1cc[nH]n1` (centres undefined), the melting point is reported as 227 to 230 °C. `CC(C)(C)Nc1nc(NC(C)(C)C)nc(N2CC3CCC(CC3)C2)n1` showed a melting point of 217 to 222 °C. Compound `CCOC(=O)c1cn(CC)c2nc(N3CCN(C)CC3)ccc2c1=O` has a melting point of 130 °C. Work on `CC(C)[C@H](NC(=O)OC(C)(C)C)C(=O)NC1CCC(Nc2cccc3c2C(=O)c2ccccc2C3=O)CC1` (some centres undefined) yielded a melting point of 179 °C. `CN1C(=O)CC[C@]2(C)c3ccc(-c4ccc(Oc5ccccc5)cc4)cc3CC[C@@H]12` showed a melting point of 148 to 150 °C. `CC(C)(C)OC(=O)N1CC(=NO)C2(CC2)C1` gave a melting point of 117 to 119 °C. With `CC(C)(C)OC(=O)NCc1ccc(C(=O)NNC(=O)OCc2ccccc2)cc1` the melting point was 160 to 162 °C. `CCC(CC)N(O)C(=O)Nc1cccc(Oc2ccccc2)c1` gave a melting point of 111 °C. `CCN(CC)C(=O)c1cc(-c2cccc([N+](=O)[O-])c2)c2sccc2c1` showed a melting point of 106 °C. In the case of `O=C(CCN1CCOCC1)Nc1cc(-c2nnc(CCc3cccc(F)c3)o2)ccn1`, the melting point is reported as 149 to 150 °C. Compound `O=S(=O)(Cc1cccs1)c1ncc(Br)cn1` has a melting point of 124 to 126 °C. Work on `COc1ccc2c(c1)c(C(C)=O)cn2C` yielded a melting point of 167 to 168 °C. With `CSc1nncc(-c2ccco2)n1` the melting point was 88 to 90 °C. In the case of `C#CCOc1cc2c(cc1OC)C(=C(C#N)C(=O)OCC)CC2(C)C`, the melting point is reported as 132 to 136 °C. For `CCCCCc1c(/C=C/C(=O)O)oc2cc(OC)ccc12`, the melting point was 146 to 147 °C. Work on `CCOC(=O)[C@H](Cc1ccc(NC(=O)c2c(Cl)cncc2Cl)cc1)NC1=CC(=O)C12CCCCC2` yielded a melting point of 194 °C. With `CC(C)(C)OC(=O)CCN(CCC12CC3CC(CC(C3)C1)C2)C(=O)NCCCc1ccncc1` the melting point was 124 to 127 °C. For `O=C(OCc1ccccc1)N1C(=O)[C@H](O)[C@@H]1c1ccccc1`, the melting point was 105 to 106 °C. For `ON=Cc1c(-c2ccccc2Cl)ccc2c1OCO2`, the melting point was 182 to 183 °C. `CC1CN(c2c(F)cc3c(=O)c(C(=O)O)cn(C4CC4)c3c2OC(F)F)CCN1` (centres undefined) showed a melting point of 223 to 225 °C. `N#C[C@@H]1C[C@@H]2C[C@@H]2N1C(=O)[C@@H](NC(=O)OCc1ccccc1)C12CC3CC(CC(O)(C3)C1)C2` showed a melting point of 105 to 106 °C. Compound `O=C(O)CCc1ccc(OCc2nc(-c3ccccc3)c(-c3ccccc3)o2)cc1` has a melting point of 124 to 127 °C. Work on `OC(CCCl)COc1cccc(C(F)(F)F)c1` (centres undefined) yielded a melting point of 50 to 52 °C. `Cc1nc2cccnc2n(-c2ccc(F)cc2)c1=O` gave a melting point of 270 to 271 °C. Compound `CCOc1ccc(C(c2ccc(C(C)CC)cc2)C(CC)[N+](=O)[O-])cc1` (centres undefined) has a melting point of 89 to 90 °C. In the case of `Cn1nnc2cc(C(=O)NC3CCCn4c3nc(-c3ccncc3)cc4=O)ccc21` (racemic), the melting point is reported as 267 to 269 °C. For `c1ccc([C@H]2CC[C@@H](Oc3ncnc4c3CCCC4)CC2)cc1`, the melting point was 109 °C. `COC(=O)c1ccc(C(O)c2cc3cc(C(F)(F)F)ccc3n2S(=O)(=O)c2cccc(C(C)(C)C)c2)cc1` (racemic) gave a melting point of 60 °C. In the case of `N#Cc1ccc(COc2cc(O)cc(C(=O)Nc3ccc(C#N)cc3)c2)cc1`, the melting point is reported as 199 to 201 °C. `CCOC(=O)c1cn(-c2nnc(C)s2)c2cc(F)c(F)cc2c1=O` showed a melting point of 170 to 173 °C. In the case of `CCOC(=O)C1(CC(=O)Nc2cccnc2)N=C(c2ccc(Cl)cc2)c2c(sc(C)c2C)-n2c(C)nnc21` (centres undefined), the melting point is reported as 133 to 135 °C. In the case of `O=C(Nc1ccc2[nH]c(=O)oc2c1)C(=O)N1CCC(Cc2ccc(F)cc2F)CC1`, the melting point is reported as 191 °C. `CC(C)Sc1nc(-c2ccc(F)cc2)c(-c2ccncc2)[nH]1` showed a melting point of 263 to 264 °C. For `O=C1CCC(N2C(=O)c3cccc(NC(=O)c4cccc(F)c4)c3C2=O)C(=O)N1` (centres undefined), the melting point was 260 to 262 °C. Compound `CC(C)(C)OC(=O)NCCCC(COC(=O)Oc1ccc([N+](=O)[O-])cc1)NC(=O)OCC1c2ccccc2-c2ccccc21` (centres undefined) has a melting point of 140 to 142 °C. In the case of `O=C(NC(O)C(=O)O)c1c(F)cccc1F` (centres undefined), the melting point is reported as 125 to 127 °C. Compound `Nc1nn2ccccc2c1N` has a melting point of 190 °C. For `CCCCCCCCCCCCCCCCCC(=O)NCCOC(=O)C1=CC(C(C)(C)C)C(O)(C(C)(C)C)C=C1` (centres undefined), the melting point was 56 to 58 °C. Compound `CCC(Cc1cccc(NC(C)=O)c1)C(=O)O` (centres undefined) has a melting point of 131 to 132 °C. With `CCOC(=O)CCCCCn1c(=O)[nH]c2ccccc2c1=O` the melting point was 103 to 104 °C. Work on `Nc1cc2nc(C(=O)O)c(=O)[nH]c2cc1[N+](=O)[O-]` yielded a melting point of 300 °C. With `CCCc1c([C@@H]2C[C@H]2c2ccccc2)oc2ccc(C(=O)OC)cc2c1=O` (relative stereo) the melting point was 171 to 173 °C. Compound `O=C(NCCCN1CCN(c2ccc(F)cc2OCC(F)(F)F)CC1)c1conc1-c1ccc(F)cc1` has a melting point of 122 to 123 °C. Work on `COc1ccc(-c2cc(C(=O)NCc3ccccn3)c(=O)n(CC3CCCC3)n2)cc1` yielded a melting point of 127 to 128 °C. `Clc1ccc(OC2CN(C(c3ccccc3)c3ccccc3)C2)cc1` showed a melting point of 113 to 114 °C. With `COc1ccc2c(c1)CCC1C2CCC2(C)C(NCCc3cccn3C)CCC12` (centres undefined) the melting point was 141 to 143 °C. Work on `COc1ccc2nc(NC(=O)C(CC3CCCC3)c3ccc(S(=O)(=O)NCc4ccccc4)cc3)sc2n1` (centres undefined) yielded a melting point of 237 to 240 °C. `CC(C)(C)C(=O)Oc1ccc(C(=O)c2ccc(OC(=O)C(C)(C)C)cc2OC(=O)C(C)(C)C)cc1` gave a melting point of 94 to 96 °C. `CCCCCCCCCCCCCCOc1cccc(CC(=O)Nc2ccccc2CO)c1` showed a melting point of 100 to 103 °C. `CC1(C)Oc2ccc([N+](=O)[O-])cc2C(C(N)=O)=C1O` gave a melting point of 189 to 191 °C. `COc1cc(C2=C(C(C)(C)C)C(C)(C)CO2)cc(OC)c1Br` gave a melting point of 139 to 140 °C. `CCN1c2ncccc2C(=O)Nc2c(C)cc(NCCCO)nc21` gave a melting point of 222 to 224 °C. Work on `CC(C)(C)c1cc(C(=O)NN)cc(C(C)(C)C)c1O` yielded a melting point of 187 to 188 °C. `COc1ccc(S(=O)(=O)C2(C(=O)NO)CCN(Cc3ccc(C)cc3)CC2)cc1` gave a melting point of 176 to 177 °C. `O=[N+]([O-])c1ccc(NC2CCCCC2)c([N+](=O)[O-])c1` showed a melting point of 153 °C. `CCOC(=O)C(C(=O)C(F)(F)F)=C(Cc1ccccc1)C(N)C(=O)OCC` (centres undefined) gave a melting point of 63 to 65 °C. `COC1C(O)C=C(C)C(OC(=O)c2ccccc2)CC1(C)C` (centres undefined) gave a melting point of 82.5 to 83.5 °C. Work on `C=Cc1ccc(CSCCO)cc1` yielded a melting point of 44 to 45.5 °C. Compound `COc1ccc2cc3c(cc2c1)C(=O)OC3=O` has a melting point of 238 to 240 °C. With `Cc1c(-c2ccc(OC(F)F)c(OC3CC3)c2)[nH]c2cn[nH]c(=O)c12` the melting point was 245 to 246 °C. Compound `CCOC(=O)c1cn(-c2c(F)cc(F)cc2F)c2nc(Cl)c(F)cc2c1=O` has a melting point of 158 to 160 °C. For `Cc1ccsc1C(Cc1ccccc1N)N(C)C(=O)C(C)C` (centres undefined), the melting point was 137 to 141 °C. With `CC(C)(C)C(=O)OCn1c(-c2cnn(-c3c(Cl)cc(C(F)(F)F)cc3Cl)n2)nc(C#N)c1C#N` the melting point was 103 to 104 °C. Compound `CCCC(=O)c1c[nH]c(=O)[nH]1` has a melting point of 268 to 270 °C. In the case of `N#CCCNNC(=S)c1ccc(OCc2ccccc2)cc1`, the melting point is reported as 135 °C. For `Cc1ccc2nc3n(c(=O)c2c1)-c1ccc(F)cc1C3=O`, the melting point was 300 to 301 °C. In the case of `CCN(c1nc(C)cc(C(=O)N2CCN(C)CC2)n1)c1ccc(C(C)C)cc1Br`, the melting point is reported as 81 to 82 °C. Work on `CC1(O)C=CC2C3CCC4=CC(=O)CCC4C3C(c3ccc(-c4ccc(C#N)cc4)cc3)CC21C` (centres undefined) yielded a melting point of 206 °C. With `CCCN1C(=O)OC2(CCN(CC=C(c3ccc(F)cc3)c3ccc(F)cc3)CC2)C1(C)O` (centres undefined) the melting point was 128 to 129 °C. `COc1ccc(C(=O)Nc2ccc(Cl)c(Cl)c2)cc1NCc1cccc(F)c1` gave a melting point of 153 to 155 °C. `CCCCNC(=O)Nc1ccc2c(c1Cl)C(c1ccccc1F)=NCC(=O)N2C` showed a melting point of 196 to 198 °C. With `COC(=O)c1cn2c(n1)COc1c(OC)cccc1-2` the melting point was 188 to 190 °C. In the case of `CCCCOc1c(C=O)n(C)c(=O)c2cc(Cl)c(Cl)cc12`, the melting point is reported as 114 to 115 °C. Work on `O=S(=O)(c1ccc(Cl)cc1)n1ccc2cc(F)ccc21` yielded a melting point of 108 to 109 °C. In the case of `CC(=O)Nc1ccc(C(=O)C=CN(C)C)cc1`, the melting point is reported as 185 to 186 °C. `Cc1cc2nc3c4cc(N)ccc4n(CCN(C)C)c3nc2cc1C` showed a melting point of 250 to 251 °C. In the case of `OCc1sc(Cl)nc1-c1ccc(F)cc1`, the melting point is reported as 97 to 98.5 °C. Work on `S=C=Nc1ccc2oc(-c3ccc(CN4CCOCC4)s3)nc2c1` yielded a melting point of 135 to 138 °C. `O=S1(=O)c2cccc3cccc(c23)N1CCCN1CCC(CC2CCc3ccccc32)CC1` (centres undefined) gave a melting point of 183 °C. In the case of `O=C(O)CNC(=O)CN1CCCC1=O`, the melting point is reported as 149 to 150 °C. `O=C1COc2cc(C(O)(C(F)(F)F)C(F)(F)F)ccc2N1` showed a melting point of 224 to 225 °C. `FC(F)(F)c1ccc(OC2(c3ccccc3)CCNCC2)cc1` gave a melting point of 104 to 105 °C. `Cc1ccc(Cc2cnc(NCCCN(Cc3ccccc3)c3ccc(Br)cn3)[nH]c2=O)cn1` showed a melting point of 150 to 155 °C. With `CC(=O)Nc1[nH]c(-c2ccc(O)cc2)nc1C` the melting point was 277 to 279 °C.
